# Measured values published in ChEMBL document CHEMBL1158305, “Bastadin 20 and bastadin O-sulfate esters from Ianthella basta: novel modulators of the Ry1R FKBP12 receptor complex” (J Nat Prod, 1996).
# Molecular target: Ryanodine receptor 1 (Oryctolagus cuniculus, UniProt P11716)
# Test: Displacement of [3H]ryanodine from Ry1R/FKBP12 receptor complex in rabbit sarcoplasmic reticulum
# Sequence of Ryanodine receptor 1 (P11716 whole entry): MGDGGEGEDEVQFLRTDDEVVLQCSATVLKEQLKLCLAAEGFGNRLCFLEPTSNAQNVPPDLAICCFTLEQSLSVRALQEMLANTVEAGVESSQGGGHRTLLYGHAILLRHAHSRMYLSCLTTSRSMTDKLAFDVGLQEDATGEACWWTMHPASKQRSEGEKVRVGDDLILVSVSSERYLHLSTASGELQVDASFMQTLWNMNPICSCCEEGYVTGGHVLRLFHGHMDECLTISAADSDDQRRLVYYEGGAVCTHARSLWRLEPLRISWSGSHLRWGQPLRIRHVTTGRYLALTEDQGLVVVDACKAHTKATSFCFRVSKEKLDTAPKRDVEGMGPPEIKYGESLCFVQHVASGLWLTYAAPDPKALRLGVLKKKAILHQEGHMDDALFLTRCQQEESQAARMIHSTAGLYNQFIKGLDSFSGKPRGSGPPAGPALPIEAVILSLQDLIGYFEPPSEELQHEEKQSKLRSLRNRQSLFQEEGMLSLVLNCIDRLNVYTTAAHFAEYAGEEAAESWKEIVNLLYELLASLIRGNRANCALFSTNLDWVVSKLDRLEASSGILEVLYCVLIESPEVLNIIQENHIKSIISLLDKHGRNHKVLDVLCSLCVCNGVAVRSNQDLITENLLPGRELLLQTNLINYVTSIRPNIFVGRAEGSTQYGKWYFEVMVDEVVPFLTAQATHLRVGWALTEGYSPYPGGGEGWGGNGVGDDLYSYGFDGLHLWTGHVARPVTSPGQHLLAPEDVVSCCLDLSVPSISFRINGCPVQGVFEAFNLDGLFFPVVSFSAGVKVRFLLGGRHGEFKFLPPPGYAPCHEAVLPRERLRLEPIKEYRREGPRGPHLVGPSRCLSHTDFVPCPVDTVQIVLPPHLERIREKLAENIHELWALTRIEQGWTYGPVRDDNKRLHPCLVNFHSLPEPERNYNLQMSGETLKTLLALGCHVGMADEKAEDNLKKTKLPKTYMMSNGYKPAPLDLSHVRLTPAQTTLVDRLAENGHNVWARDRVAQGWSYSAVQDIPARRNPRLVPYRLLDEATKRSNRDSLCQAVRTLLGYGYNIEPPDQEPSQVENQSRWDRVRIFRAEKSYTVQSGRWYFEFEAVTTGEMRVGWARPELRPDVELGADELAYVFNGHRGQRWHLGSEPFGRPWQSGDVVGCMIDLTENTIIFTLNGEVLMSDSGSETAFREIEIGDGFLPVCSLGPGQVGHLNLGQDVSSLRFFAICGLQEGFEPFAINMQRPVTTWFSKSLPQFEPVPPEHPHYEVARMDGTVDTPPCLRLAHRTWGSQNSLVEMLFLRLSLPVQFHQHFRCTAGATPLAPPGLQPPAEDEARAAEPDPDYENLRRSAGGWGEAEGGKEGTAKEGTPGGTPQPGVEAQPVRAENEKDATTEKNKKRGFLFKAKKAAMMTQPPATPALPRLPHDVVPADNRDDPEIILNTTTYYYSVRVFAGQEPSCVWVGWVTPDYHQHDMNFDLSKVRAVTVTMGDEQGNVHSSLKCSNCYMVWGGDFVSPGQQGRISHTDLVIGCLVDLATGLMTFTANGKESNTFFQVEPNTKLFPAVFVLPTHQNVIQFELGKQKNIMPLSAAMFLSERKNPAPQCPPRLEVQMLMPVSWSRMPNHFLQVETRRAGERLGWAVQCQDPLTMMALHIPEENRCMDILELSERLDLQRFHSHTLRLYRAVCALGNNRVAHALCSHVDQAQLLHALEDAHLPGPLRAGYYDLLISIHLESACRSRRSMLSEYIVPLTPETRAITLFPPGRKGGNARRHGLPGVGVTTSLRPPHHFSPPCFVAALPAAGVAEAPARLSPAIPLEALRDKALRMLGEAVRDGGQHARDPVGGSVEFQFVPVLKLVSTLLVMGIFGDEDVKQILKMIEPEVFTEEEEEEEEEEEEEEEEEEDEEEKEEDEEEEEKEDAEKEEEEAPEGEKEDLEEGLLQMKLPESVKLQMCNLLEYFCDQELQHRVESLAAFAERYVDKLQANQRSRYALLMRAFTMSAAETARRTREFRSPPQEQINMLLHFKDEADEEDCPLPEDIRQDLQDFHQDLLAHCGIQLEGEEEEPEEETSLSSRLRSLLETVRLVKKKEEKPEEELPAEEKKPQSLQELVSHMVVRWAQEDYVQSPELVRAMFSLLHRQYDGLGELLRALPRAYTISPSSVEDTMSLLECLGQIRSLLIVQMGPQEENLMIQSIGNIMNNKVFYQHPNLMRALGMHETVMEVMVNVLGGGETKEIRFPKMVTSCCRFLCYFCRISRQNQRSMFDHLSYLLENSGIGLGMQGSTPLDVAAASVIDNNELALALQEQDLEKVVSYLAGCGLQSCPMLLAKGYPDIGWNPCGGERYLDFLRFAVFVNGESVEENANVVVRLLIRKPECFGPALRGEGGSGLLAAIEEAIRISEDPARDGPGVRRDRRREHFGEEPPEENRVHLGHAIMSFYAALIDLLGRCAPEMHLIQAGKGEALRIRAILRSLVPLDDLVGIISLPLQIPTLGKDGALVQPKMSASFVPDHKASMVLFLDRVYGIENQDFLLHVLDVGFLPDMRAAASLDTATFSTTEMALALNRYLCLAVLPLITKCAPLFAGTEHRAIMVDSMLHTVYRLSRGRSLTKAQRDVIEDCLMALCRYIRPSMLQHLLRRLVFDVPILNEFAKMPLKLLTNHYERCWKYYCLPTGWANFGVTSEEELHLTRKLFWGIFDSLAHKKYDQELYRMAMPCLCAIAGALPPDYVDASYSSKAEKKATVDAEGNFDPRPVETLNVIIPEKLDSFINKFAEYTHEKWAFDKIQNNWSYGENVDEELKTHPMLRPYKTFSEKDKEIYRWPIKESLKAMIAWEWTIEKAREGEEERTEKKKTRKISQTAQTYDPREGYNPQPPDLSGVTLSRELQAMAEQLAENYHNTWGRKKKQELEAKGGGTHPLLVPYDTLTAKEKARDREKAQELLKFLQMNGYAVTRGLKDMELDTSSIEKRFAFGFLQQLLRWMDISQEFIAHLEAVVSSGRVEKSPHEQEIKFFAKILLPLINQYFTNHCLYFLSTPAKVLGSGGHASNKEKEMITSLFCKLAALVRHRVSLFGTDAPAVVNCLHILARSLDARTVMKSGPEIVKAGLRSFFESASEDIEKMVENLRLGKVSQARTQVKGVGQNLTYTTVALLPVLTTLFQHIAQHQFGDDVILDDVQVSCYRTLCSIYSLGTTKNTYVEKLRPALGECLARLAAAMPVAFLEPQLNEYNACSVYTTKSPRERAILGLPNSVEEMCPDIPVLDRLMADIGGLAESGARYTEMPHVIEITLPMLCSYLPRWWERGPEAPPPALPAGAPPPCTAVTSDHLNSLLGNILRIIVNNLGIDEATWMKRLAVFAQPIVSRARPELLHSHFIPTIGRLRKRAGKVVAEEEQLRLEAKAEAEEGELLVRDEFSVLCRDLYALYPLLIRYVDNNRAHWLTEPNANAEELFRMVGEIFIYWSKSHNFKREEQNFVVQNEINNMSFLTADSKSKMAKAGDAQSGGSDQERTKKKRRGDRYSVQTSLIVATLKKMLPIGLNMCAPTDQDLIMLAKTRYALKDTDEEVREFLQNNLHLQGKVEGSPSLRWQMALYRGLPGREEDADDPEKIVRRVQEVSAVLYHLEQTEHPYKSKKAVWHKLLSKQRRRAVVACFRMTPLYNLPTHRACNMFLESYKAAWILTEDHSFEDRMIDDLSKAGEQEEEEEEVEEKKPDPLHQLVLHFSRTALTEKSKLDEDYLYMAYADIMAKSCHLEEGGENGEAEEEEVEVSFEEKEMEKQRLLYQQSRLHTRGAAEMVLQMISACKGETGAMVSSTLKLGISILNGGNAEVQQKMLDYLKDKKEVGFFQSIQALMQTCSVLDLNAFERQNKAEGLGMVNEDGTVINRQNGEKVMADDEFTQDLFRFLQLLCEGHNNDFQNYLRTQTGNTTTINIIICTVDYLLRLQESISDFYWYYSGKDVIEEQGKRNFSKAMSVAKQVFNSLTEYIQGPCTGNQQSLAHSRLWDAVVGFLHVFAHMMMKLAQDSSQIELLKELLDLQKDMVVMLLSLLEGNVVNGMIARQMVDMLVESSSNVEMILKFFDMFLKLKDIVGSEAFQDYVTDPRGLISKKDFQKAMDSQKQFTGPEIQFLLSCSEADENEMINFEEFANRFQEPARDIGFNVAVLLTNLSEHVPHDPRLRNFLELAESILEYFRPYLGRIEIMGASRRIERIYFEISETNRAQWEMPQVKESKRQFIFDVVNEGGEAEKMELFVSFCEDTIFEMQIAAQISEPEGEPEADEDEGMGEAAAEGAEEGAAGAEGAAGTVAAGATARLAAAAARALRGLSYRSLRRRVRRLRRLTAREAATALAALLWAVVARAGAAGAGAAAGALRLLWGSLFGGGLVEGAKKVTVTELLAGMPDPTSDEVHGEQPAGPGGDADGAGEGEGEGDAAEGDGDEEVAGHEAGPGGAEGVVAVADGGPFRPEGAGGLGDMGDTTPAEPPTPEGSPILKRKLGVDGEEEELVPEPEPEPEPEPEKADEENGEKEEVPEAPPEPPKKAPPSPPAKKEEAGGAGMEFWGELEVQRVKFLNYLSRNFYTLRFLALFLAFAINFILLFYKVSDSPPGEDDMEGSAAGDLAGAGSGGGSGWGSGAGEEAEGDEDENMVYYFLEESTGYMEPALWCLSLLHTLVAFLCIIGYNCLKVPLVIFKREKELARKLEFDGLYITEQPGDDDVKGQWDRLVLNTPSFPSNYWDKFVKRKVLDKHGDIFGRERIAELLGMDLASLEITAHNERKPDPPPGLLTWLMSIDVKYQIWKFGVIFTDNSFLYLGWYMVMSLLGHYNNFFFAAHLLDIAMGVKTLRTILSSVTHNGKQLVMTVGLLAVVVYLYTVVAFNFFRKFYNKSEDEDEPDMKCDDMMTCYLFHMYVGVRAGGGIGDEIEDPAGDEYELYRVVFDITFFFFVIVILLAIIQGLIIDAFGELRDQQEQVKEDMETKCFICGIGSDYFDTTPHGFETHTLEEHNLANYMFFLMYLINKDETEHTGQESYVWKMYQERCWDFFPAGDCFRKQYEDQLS
row,SMILES,EC50 [µM]
1,O=C1N/C=C/c2ccc(c(Br)c2)Oc2cc(cc(Br)c2OS(=O)(=O)O)CCNC(=O)/C(=N/O)Cc2ccc(c(Br)c2)Oc2cc(cc(Br)c2OS(=O)(=O)O)C/C1=N\O,13.6
2,O=C1NCCc2ccc(c(Br)c2)Oc2cc(cc(Br)c2O)CCNC(=O)/C(=N/O)Cc2cc(Br)c(O)c(c2)Oc2c(Br)cc(cc2Br)C/C1=N\O [BASTADIN 19],> 100
